Data: patent publication US20240425501A1, “NOVEL BICYCLIC HETEROARYL DERIVATIVES AS SOS1:KRAS PROTEINPROTEIN INTERACTION INHIBITORS” (SATYARX PHARMA INNOVATIONS PVT LTD, priority 2021, published 2024)

The compounds below were run against T1, hSOS1 enzyme / KRAS (G12C), GST-Tag, GDP-bound protein (Homo sapiens, UniProt Q07889) (assay: SOS1-mediated KRAS guanine nucleotide exchange (GEF) assay, HTRF ("On Assay")). Conditions: 1 μM compound.
T1 sequence (Q07889 564-1049 limits assumed): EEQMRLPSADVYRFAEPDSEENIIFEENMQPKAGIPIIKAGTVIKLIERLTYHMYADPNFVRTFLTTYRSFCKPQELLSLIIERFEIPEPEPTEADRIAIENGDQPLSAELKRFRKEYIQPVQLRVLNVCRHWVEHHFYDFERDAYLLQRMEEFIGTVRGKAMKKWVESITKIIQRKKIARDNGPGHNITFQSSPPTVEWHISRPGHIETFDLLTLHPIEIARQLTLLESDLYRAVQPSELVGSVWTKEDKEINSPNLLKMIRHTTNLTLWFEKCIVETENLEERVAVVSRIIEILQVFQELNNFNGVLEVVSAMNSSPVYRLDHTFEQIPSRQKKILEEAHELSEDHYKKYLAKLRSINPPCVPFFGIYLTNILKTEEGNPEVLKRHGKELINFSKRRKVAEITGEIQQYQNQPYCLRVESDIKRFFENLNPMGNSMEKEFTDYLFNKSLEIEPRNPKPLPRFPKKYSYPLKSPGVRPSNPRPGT
Format: biochemical
Experimental: Biochemical Assay: Measurement of SOS1-Mediated KRAS Guanine Nucleotide Exchange (GEF) Assay
This assay quantifies the HTRF-based SOS1 mediated guanine nucleotide exchange assay detecting GTP binding to KRAS (G12C), GST-Tag, GDP-bound protein. This is also referred as “On Assay”.The assay buffer composition is as follows: 10 mM HEPES pH-7, 150 mM NaCl, 5 mM MgCl2, 1 mM DTT, 0.05% BSA, 0.0025% IGEPAL CA-630 and MilliQ water. 0.5 μl of compounds diluted in assay buffer were dispensed into the respective wells of 384 black well test plate. 4.75 μl of KRAS working solution containing 100 nM KRAS (G12C), GST-Tag, GDP-bound protein GDP-loaded (Reaction biology) and 2 nM Anti GST-Tb cryptate (FRET donor, Cisbio) was added in assay buffer. The components were incubated for 10 min at 25° C.
4.75 μl of hSOS1 working solution containing 20 nM hSOS1 enzyme and 200 nM EDA-GTP-DY-647P (FRET acceptor, synthesized by Jena Bioscience (Germany), supplied as a 1 mM solution) was further added in assay buffer. 4.75 μl of inhibitor control having only 200 nM EDA-GTP-DY-647P1 component without hSOS1 working solution was added in the negative control well. The plate was short spun for few seconds and incubated for 10 min. HTRF was measured using Perkin Elmer-Nivo 5F multimode plate reader.
HTRF settings: EXCITATION FILTER—320/75 nm, EMISSION FILTER (1) —615/8 nm, EMISSION FILTER (2)—665/8 nm

`C[C@@H](Nc1nc(Cl)nc2cnc(N3CCCC3)cc12)c1cc(N)cc(C(F)(F)F)c1` [Example 1, (R)—N-(1-(3-amino-5-(trifluoromethyl)phenyl)ethyl)-2-chloro-6-(pyrrolidin-1-yl)pyrido[3,4-d]pyrimidin-4-amine] and `COc1nc(N[C@H](C)c2cc(N)cc(C(F)(F)F)c2)c2cc(N3CCCC3)ncc2n1` [Example 3, (R)—N-(1-(3-amino-5-(trifluoromethyl)phenyl)ethyl)-2-methoxy-6-(pyrrolidin-1-yl)pyrido[3,4-d]pyrimidin-4-amine] cannot be ordered by inhibition at 1 µM: no less than 50% for the first, no less than 50% for the second.

`C[C@@H](Nc1nc(N(C)C)nc2cnc(N3CCCC3)cc12)c1cc(N)cc(C(F)(F)F)c1` [Example 2, N4—(R)-(1-(3-amino-5-(trifluoromethyl)phenyl)ethyl)-N2,N2-dimethyl-6-(pyrrolidin-1-yl)pyrido[3,4-d]pyrimidine-2,4-diamine] and `C[C@@H](Nc1nc(N(C)C)nc2cnc(N3CCOCC3)cc12)c1cc(N)cc(C(F)(F)F)c1` [Example 8, (R)—N4-(1-(3-amino-5-(trifluoromethyl)phenyl)ethyl)-N2,N2-dimethyl-6-morpholinopyrido[3,4-d]pyrimidine-2,4-diamine] cannot be ordered by inhibition at 1 µM: no less than 50% for the first, no less than 50% for the second.

`COCCOc1nc(N[C@H](C)c2cc(N)cc(C(F)(F)F)c2)c2cc(N3CCCC3)ncc2n1` [Example 4, (R)—N-(1-(3-amino-5-(trifluoromethyl)phenyl)ethyl)-2-(2-methoxyethoxy)-6-(pyrrolidin-1-yl)pyrido[3,4-d]pyrimidin-4-amine] and `C[C@@H](Nc1nc(OCCO)nc2cnc(N3CCCC3)cc12)c1cc(N)cc(C(F)(F)F)c1` [Example 11, (R)-2-((4-((1-(3-amino-5-(trifluoromethyl)phenyl)ethyl)amino)-6-(pyrrolidin-1-yl)pyrido[3,4-d]pyrimidin-2-yl)oxy)ethan-1-ol] cannot be ordered by inhibition at 1 µM: no less than 50% for the first, no less than 50% for the second.

`C[C@@H](Nc1nc(N2CCOCC2)nc2cnc(N3CCCC3)cc12)c1cc(N)cc(C(F)(F)F)c1` [Example 5, (R)—N-(1-(3-amino-5-(trifluoromethyl)phenyl)ethyl)-2-morpholino-6-(pyrrolidin-1-yl)pyrido[3,4-d]pyrimidin-4-amine] and `C[C@@H](Nc1nc(N2CCC2)nc2cnc(N3CCCC3)cc12)c1cc(N)cc(C(F)(F)F)c1` [Example 16, (R)—N-(1-(3-amino-5-(trifluoromethyl)phenyl)ethyl)-2-(azetidin-1-yl)-6-(pyrrolidin-1-yl)pyrido[3,4-d]pyrimidin-4-amine] cannot be ordered by inhibition at 1 µM: less than 50% for the first, no less than 50% for the second.

`C[C@@H](Nc1nc(N2CCN(C)CC2)nc2cnc(N3CCCC3)cc12)c1cc(N)cc(C(F)(F)F)c1` [Example 6, (R)—N-(1-(3-amino-5-(trifluoromethyl)phenyl)ethyl)-2-(4-methylpiperazin-1-yl)-6-(pyrrolidin-1-yl)pyrido[3,4-d]pyrimidin-4-amine] and `C[C@@H](Nc1nc(N2CCCC2)nc2cnc(N3CCCC3)cc12)c1cc(N)cc(C(F)(F)F)c1` [Example 17, (R)—N-(1-(3-amino-5-(trifluoromethyl)phenyl)ethyl)-2,6-di(pyrrolidin-1-yl)pyrido[3,4-d]pyrimidin-4-amine] cannot be ordered by inhibition at 1 µM: less than 50% for the first, no less than 50% for the second.

`CNc1nc(N[C@H](C)c2cc(N)cc(C(F)(F)F)c2)c2cc(N3CCCC3)ncc2n1` [Example 7, (R)—N4-(1-(3-amino-5-(trifluoromethyl)phenyl)ethyl)-N2-methyl-6-(pyrrolidin-1-yl)pyrido[3,4-d]pyrimidine-2,4-diamine] and `CNc1nc(N[C@H](C)c2cc(N)cc(C(F)(F)F)c2)c2cc(N3CCOCC3)ncc2n1` [Example 18, (R)—N4-(1-(3-amino-5-(trifluoromethyl)phenyl)ethyl)-N2-methyl-6-morpholinopyrido[3,4-d]pyrimidine-2,4-diamine] cannot be ordered by inhibition at 1 µM: no less than 50% for the first, no less than 50% for the second.

`C[C@@H](Nc1nc(NCCN(C)C)nc2cnc(N3CCCC3)cc12)c1cc(N)cc(C(F)(F)F)c1` [Example 9, (R)—N4-(1-(3-amino-5-(trifluoromethyl)phenyl)ethyl)-N2-(2-(dimethylamino)ethyl)-6-(pyrrolidin-1-yl)pyrido[3,4-d]pyrimidine-2,4-diamine] and `C[C@@H](Nc1nc(NCCO)nc2cnc(N3CCCC3)cc12)c1cc(N)cc(C(F)(F)F)c1` [Example 12, (R)-2-((4-((1-(3-amino-5-(trifluoromethyl)phenyl)ethyl)amino)-6-(pyrrolidin-1-yl)pyrido[3,4-d]pyrimidin-2-yl)amino)ethan-1-ol] cannot be ordered by inhibition at 1 µM: no less than 50% for the first, no less than 50% for the second.

`C[C@@H](Nc1nc(N(C)CCN(C)C)nc2cnc(N3CCCC3)cc12)c1cc(N)cc(C(F)(F)F)c1` [Example 10, (R)—N4-(1-(3-amino-5-(trifluoromethyl)phenyl)ethyl)-N2-(2-(dimethylamino)ethyl)-N2-methyl-6-(pyrrolidin-1-yl)pyrido[3,4-d]pyrimidine-2,4-diamine] and `C[C@@H](Nc1nc(N(C)CCO)nc2cnc(N3CCCC3)cc12)c1cc(N)cc(C(F)(F)F)c1` [Example 13, (R)-2-((4-((1-(3-amino-5-(trifluoromethyl)phenyl)ethyl)amino)-6-(pyrrolidin-1-yl)pyrido[3,4-d]pyrimidin-2-yl)(methyl)amino)ethan-1-ol] cannot be ordered by inhibition at 1 µM: no less than 50% for the first, no less than 50% for the second.

`COCCNc1nc(N[C@H](C)c2cc(N)cc(C(F)(F)F)c2)c2cc(N3CCCC3)ncc2n1` [Example 14, (R)—N4-(1-(3-amino-5-(trifluoromethyl)phenyl)ethyl)-N2-(2-methoxyethyl)-6-(pyrrolidin-1-yl)pyrido[3,4-d]pyrimidine-2,4-diamine] and `COCCN(C)c1nc(N[C@H](C)c2cc(N)cc(C(F)(F)F)c2)c2cc(N3CCCC3)ncc2n1` [Example 15, (R)—N4-(1-(3-amino-5-(trifluoromethyl)phenyl)ethyl)-N2-(2-methoxyethyl)-N2-methyl-6-(pyrrolidin-1-yl)pyrido[3,4-d]pyrimidine-2,4-diamine] cannot be ordered by inhibition at 1 µM: no less than 50% for the first, no less than 50% for the second.

`C[C@@H](Nc1nc(Cl)nc2cnc(N3CCOCC3)cc12)c1cc(N)cc(C(F)(F)F)c1` [Example 19, (R)—N-(1-(3-amino-5-(trifluoromethyl)phenyl)ethyl)-2-chloro-6-morpholinopyrido[3,4-d]pyrimidin-4-amine] and `C[C@@H](Nc1nc(Cl)nc2cnc(N3CCC(F)CC3)cc12)c1cc(N)cc(C(F)(F)F)c1` [Example 22, (R)—N-(1-(3-amino-5-(trifluoromethyl)phenyl)ethyl)-2-chloro-6-(4-fluoropiperidin-1-yl)pyrido[3,4-d]pyrimidin-4-amine] cannot be ordered by inhibition at 1 µM: no less than 50% for the first, no less than 50% for the second.

`COC1CCN(c2cc3c(N[C@H](C)c4cc(N)cc(C(F)(F)F)c4)nc(Cl)nc3cn2)CC1` [Example 20, (R)—N-(1-(3-amino-5-(trifluoromethyl)phenyl)ethyl)-2-chloro-6-(4-methoxypiperidin-1-yl)pyrido[3,4-d]pyrimidin-4-amine] and `C[C@@H](Nc1nc(Cl)nc2cnc(N3CCN(C)CC3)cc12)c1cc(N)cc(C(F)(F)F)c1` [Example 23, (R)—N-(1-(3-amino-5-(trifluoromethyl)phenyl)ethyl)-2-chloro-6-(4-methylpiperazin-1-yl)pyrido[3,4-d]pyrimidin-4-amine] cannot be ordered by inhibition at 1 µM: no less than 50% for the first, no less than 50% for the second.

`C[C@@H](Nc1nc(Cl)nc2cnc(N3CCC(F)(F)CC3)cc12)c1cc(N)cc(C(F)(F)F)c1` [Example 21, (R)—N-(1-(3-amino-5-(trifluoromethyl)phenyl)ethyl)-2-chloro-6-(4,4-difluoropiperidin-1-yl)pyrido[3,4-d]pyrimidin-4-amine] and `CC(C)N1CCN(c2cc3c(N[C@H](C)c4cc(N)cc(C(F)(F)F)c4)nc(Cl)nc3cn2)CC1` [Example 25, (R)—N-(1-(3-amino-5-(trifluoromethyl)phenyl)ethyl)-2-chloro-6-(4-isopropylpiperazin-1-yl)pyrido[3,4-d]pyrimidin-4-amine] cannot be ordered by inhibition at 1 µM: no less than 50% for the first, no less than 50% for the second.

For `CCN1CCN(c2cc3c(N[C@H](C)c4cc(N)cc(C(F)(F)F)c4)nc(Cl)nc3cn2)CC1` [Example 24, (R)—N-(1-(3-amino-5-(trifluoromethyl)phenyl)ethyl)-2-chloro-6-(4-ethylpiperazin-1-yl)pyrido[3,4-d]pyrimidin-4-amine], the inhibition at 1 µM was no less than 50%.
